Assay results reported in PubChem BioAssay AID330 (DTP/NCI, 2004).
Several values for one entry are separate records, joined by “and”; a condition that tells them apart may be missing. Identical values can stand only once. Toxic doses and inconclusive results are not listed. How the source made its calls: active means survival T/C of 150% or more; inactive means T/C below 125% in these data.

System: P388 leukemia ip, CD2F1 mice, survival T/C
Experiment: NCI In Vivo Anticancer Drug Screen. Data for tumor model P388 Leukemia (intraperitoneal) in CD2F1 (CDF1) mice
Conditions: endpoint: median survival time, higher = longer survival
Procedure, shortened: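 Mice carrying the transplanted tumor received test compound or vehicle. Survival was recorded in each group, and the value is the treated-group measurement divided by that of the vehicle-treated control group.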

[1] = dose: 12.5 mg/kg/injection, schedule: Q01DX009 (ip), vehicle: distilled water + Tween-80
[2] = dose: 25.0 mg/kg/injection, schedule: Q01DX009 (ip), vehicle: distilled water + Tween-80
[3] = dose: 50.0 mg/kg/injection, schedule: Q01DX009 (ip), vehicle: distilled water + Tween-80
[4] = dose: 100.0 mg/kg/injection, schedule: Q01DX009 (ip), vehicle: distilled water + Tween-80
[5] = dose: 200.0 mg/kg/injection, schedule: Q01DX009 (ip), vehicle: distilled water + Tween-80
[6] = dose: 50.0 mg/kg/injection, schedule: Q01DX005 (ip), vehicle: saline with Tween-80
[7] = dose: 100.0 mg/kg/injection, schedule: Q01DX005 (ip), vehicle: saline with Tween-80
[8] = dose: 60.0 mg/kg/injection, schedule: Q01DX005 (ip), vehicle: saline with Tween-80
[9] = dose: 120.0 mg/kg/injection, schedule: Q01DX005 (ip), vehicle: saline with Tween-80
[10] = dose: 240.0 mg/kg/injection, schedule: Q01DX005 (ip), vehicle: saline with Tween-80

Measured: T/C

O=c1c2ccccc2sc2c(CO)ccc(NCCCN3CCN(CCCNc4ccc(CO)c5sc6ccccc6c(=O)c45)CC3)c12
inactive: dose: 0.67 mg/kg/injection, schedule: Q01DX005 (ip), vehicle: saline with Tween-80 93 % of control | dose: 1.25 mg/kg/injection, schedule: Q01DX005 (ip), vehicle: saline with Tween-80 104 % of control | dose: 2.5 mg/kg/injection, schedule: Q01DX005 (ip), vehicle: saline with Tween-80 107 % of control | dose: 5.0 mg/kg/injection, schedule: Q01DX005 (ip), vehicle: saline with Tween-80 95 % of control | dose: 10.0 mg/kg/injection, schedule: Q01DX005 (ip), vehicle: saline with Tween-80 104 % of control | dose: 20.0 mg/kg/injection, schedule: Q01DX005 (ip), vehicle: saline with Tween-80 94 % of control | dose: 40.0 mg/kg/injection, schedule: Q01DX005 (ip), vehicle: saline with Tween-80 86 % of control and 95 % of control | dose: 80.0 mg/kg/injection, schedule: Q01DX005 (ip), vehicle: saline with Tween-80 90 % of control

Cc1sc([S-])n[n+]1-c1ccccc1
inactive: dose: 6.25 mg/kg/injection, schedule: Q01DX009 (ip), vehicle: distilled water + Tween-80 93 % of control | [1] 90 % of control | [2] 96 % of control | [3] 97 % of control | [4] 110 % of control | [5] 105 % of control

C1=C(c2ccccc2)SC(N2CCCCC2)S1 (stereo unspecified)
inactive: [1] 99 % of control | [2] 99 % of control | [3] 96 % of control | [4] 104 % of control | [5] 112 % of control

CSC(=S)Nc1nc2ccc(C)cc2s1
inactive: dose: 100.0 mg/kg/injection, schedule: Q04DX003 (ip), vehicle: Klucel (hydroxypropylcellulose) (HPC) 95 % of control | dose: 200.0 mg/kg/injection, schedule: Q04DX003 (ip), vehicle: Klucel (hydroxypropylcellulose) (HPC) 88 % of control | dose: 400.0 mg/kg/injection, schedule: Q04DX003 (ip), vehicle: Klucel (hydroxypropylcellulose) (HPC) 92 % of control

COC1=CC2(C=CC1=O)CCC(=O)O2 (stereo unspecified)
inactive: dose: 12.5 mg/kg/injection, schedule: Q01DX005 (ip), vehicle: saline with Tween-80 119 % of control | dose: 25.0 mg/kg/injection, schedule: Q01DX005 (ip), vehicle: saline with Tween-80 111 % of control | [6] 115 % of control and 113 % of control | [7] 108 % of control

O=S(=O)(F)/C=C/c1ccccc1
inactive: dose: 50.0 mg/kg/injection, schedule: Q01DX009 (ip), vehicle: saline with Tween-80 109 % of control | dose: 100.0 mg/kg/injection, schedule: Q01DX009 (ip), vehicle: saline with Tween-80 109 % of control

C/C(N)=C/C(=O)Nc1ccccc1
inactive: dose: 25.0 mg/kg/injection, schedule: Q01DX009 (ip), vehicle: Klucel (hydroxypropylcellulose) (HPC) 109 % of control | dose: 50.0 mg/kg/injection, schedule: Q01DX009 (ip), vehicle: Klucel (hydroxypropylcellulose) (HPC) 109 % of control | dose: 100.0 mg/kg/injection, schedule: Q01DX009 (ip), vehicle: Klucel (hydroxypropylcellulose) (HPC) 97 % of control | dose: 200.0 mg/kg/injection, schedule: Q01DX009 (ip), vehicle: Klucel (hydroxypropylcellulose) (HPC) 108 % of control

O=C(CNC(=O)Nc1cccc(C(F)(F)F)c1)NNC(=O)Nc1ccc(Cl)c([N+](=O)[O-])c1
inactive: [8] 92 % of control | [9] 87 % of control | [10] 92 % of control

O=C(/C=C/c1c(-c2ccccc2)[nH]c2ccccc12)c1ccc([N+](=O)[O-])cc1
inactive: [8] 97 % of control | [9] 90 % of control | [10] 87 % of control

CCCCCCCCCCCCN(CCCCCCCCCCCC)CC(O)c1cc2c(c3ccccc13)CCCC2 (stereo unspecified)
inactive: [6] 101 % of control | [7] 97 % of control | dose: 200.0 mg/kg/injection, schedule: Q01DX005 (ip), vehicle: saline with Tween-80 101 % of control

O=C1CC2(CCCCC2)C(=O)N1c1ccc(-c2ccc(N3C(=O)CC4(CCCCC4)C3=O)cc2)cc1
inactive: dose: 100.0 mg/kg/injection, schedule: Q04DX002 (ip), vehicle: Klucel (hydroxypropylcellulose) (HPC) 89 % of control | dose: 200.0 mg/kg/injection, schedule: Q04DX002 (ip), vehicle: Klucel (hydroxypropylcellulose) (HPC) 88 % of control | dose: 400.0 mg/kg/injection, schedule: Q04DX002 (ip), vehicle: Klucel (hydroxypropylcellulose) (HPC) 91 % of control

O=C(Nc1cccnc1)c1ccc([N+](=O)[O-])s1
inactive: dose: 25.0 mg/kg/injection, schedule: Q01DX005 (ip), vehicle: saline 90 % of control | dose: 50.0 mg/kg/injection, schedule: Q01DX005 (ip), vehicle: saline 87 % of control | dose: 100.0 mg/kg/injection, schedule: Q01DX005 (ip), vehicle: saline 92 % of control | dose: 200.0 mg/kg/injection, schedule: Q01DX005 (ip), vehicle: saline 103 % of control | dose: 400.0 mg/kg/injection, schedule: Q01DX005 (ip), vehicle: saline 121 % of control

Cc1cc(=O)oc2c(C)c3oc4c(c3cc12)CN(C)CC4
inactive: dose: 50.0 mg/kg/injection, schedule: Q01DX005 (ip), vehicle: Klucel (hydroxypropylcellulose) (HPC) 100 % of control | dose: 100.0 mg/kg/injection, schedule: Q01DX005 (ip), vehicle: Klucel (hydroxypropylcellulose) (HPC) 117 % of control

CCOP(=O)(OCC)C1CCCN2CCc3cc(OC)c(OC)cc3C12 (stereo unspecified)
inactive: dose: 50.0 mg/kg/injection, schedule: Q01DX009 (ip), vehicle: saline 91 % of control | dose: 100.0 mg/kg/injection, schedule: Q01DX009 (ip), vehicle: saline 98 % of control | dose: 200.0 mg/kg/injection, schedule: Q01DX009 (ip), vehicle: saline 95 % of control

CCC1=CC2CN(CCc3c([nH]c4ccccc34)C(C(=O)OC)(c3cc4c(cc3OC)N(C)C3C(O)(C(=O)OC)C(OC(C)=O)C5(CC)CCCN6CCC43C65)C2)C1 (stereo unspecified)
inactive: dose: 0.06 mg/kg/injection, schedule: Q01DX009 (ip), vehicle: water 95 % of control | dose: 0.13 mg/kg/injection, schedule: Q01DX009 (ip), vehicle: water 94 % of control | dose: 0.25 mg/kg/injection, schedule: Q01DX009 (ip), vehicle: water 94 % of control | dose: 0.5 mg/kg/injection, schedule: Q01DX009 (ip), vehicle: water 90 % of control | dose: 1.0 mg/kg/injection, schedule: Q01DX001 (ip), vehicle: water 100 % of control and 115 % of control | dose: 1.0 mg/kg/injection, schedule: Q01DX009 (ip), vehicle: water 90 % of control | dose: 2.0 mg/kg/injection, schedule: Q01DX001 (ip), vehicle: water 107 % of control and 100 % of control | dose: 2.0 mg/kg/injection, schedule: Q01DX009 (ip), vehicle: water 106 % of control and 110 % of control | dose: 4.0 mg/kg/injection, schedule: Q01DX001 (ip), vehicle: water 110 % of control and 108 % of control | dose: 4.0 mg/kg/injection, schedule: Q01DX009 (ip), vehicle: water 109 % of control and 111 % of control | dose: 8.0 mg/kg/injection, schedule: Q01DX001 (ip), vehicle: water 119 % of control and 109 % of control and 115 % of control | dose: 8.0 mg/kg/injection, schedule: Q01DX009 (ip), vehicle: water 122 % of control | dose: 16.0 mg/kg/injection, schedule: Q01DX001 (ip), vehicle: water 122 % of control and 112 % of control and 116 % of control | dose: 32.0 mg/kg/injection, schedule: Q01DX001 (ip), vehicle: water 122 % of control and 115 % of control and 119 % of control

CCCC(O)C[N+](=O)[O-] (stereo unspecified)
inactive: dose: 100.0 mg/kg/injection, schedule: Q04DX003 (ip), vehicle: saline 109 % of control | dose: 200.0 mg/kg/injection, schedule: Q04DX003 (ip), vehicle: saline 109 % of control | dose: 400.0 mg/kg/injection, schedule: Q04DX003 (ip), vehicle: saline 118 % of control
